Assay results published in the supplement of paper PMC10307832.

Tests used:
Assay in all cases: relative viability (nuclei count vs DMSO), 5 days (fraction); higher = more cells survive
kb NB 142-70 = compound: C1CSC2=C(C(=O)N1)SC3=C2C=C(C=C3)O [kb NB 142-70]
How it was run: (§1)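 Lung cancer cell lines were seeded into 1536-well plates, kept overnight at 37 °C and pinned with five library-drug doses (not always all listed) spaced by √10. After 5 days, nuclei were Hoechst-stained, imaged at 4× and counted with MetaXpress. Viability is treated-well nuclei over vehicle-well nuclei, taken as a median across plates. Plates needed control CV below 25% and at least one doubling.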

[1] = compound: NCC(=O)Nc1ccc(-n2nc(C(F)(F)F)cc2-c2ccc3c(ccc4ccccc43)c2)cc1
How it was run: as §1

[2] = compound: C1CSC2=C(C(=O)N1)SC3=C2C=C(C=C3)O [kb NB 142-70] + CC(=O)Nc1cccc(-n2c(=O)n(C3CC3)c(=O)c3c(Nc4ccc(I)cc4F)n(C)c(=O)c(C)c32)c1 [Trametinib] (partner 0.02 µM)
How it was run: (§2)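 Dosing by pin tool came one day after lung cancer cell lines were seeded in 1536-well plates, using either one drug or a fixed anchor-drug dose plus five library-drug doses (not always all listed) in √10 steps. After 5 days, nuclei were counted on 4× images. Relative viability is treated-well nuclei count divided by vehicle-well nuclei count, and values are medians of duplicate plates.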

[3] = compound: NCC(=O)Nc1ccc(-n2nc(C(F)(F)F)cc2-c2ccc3c(ccc4ccccc43)c2)cc1 + CC1(C)CCC(c2ccc(Cl)cc2)=C(CN2CCN(c3ccc(C(=O)NS(=O)(=O)c4ccc(N[C@H](CCN5CCOCC5)CSc5ccccc5)c(S(=O)(=O)C(F)(F)F)c4)cc3)CC2)C1 [Navitoclax] (partner 0.5 µM)
How it was run: as §2

| Cell Line | relative viability (kb NB 142-70; 0.1 µM) | relative viability (kb NB 142-70; 1 µM) | relative viability (kb NB 142-70; 3.162 µM) | relative viability ([1]; 0.02 µM) | relative viability ([1]; 0.06325 µM) | relative viability ([1]; 0.2 µM) | relative viability ([1]; 0.6325 µM) | relative viability ([1]; 2 µM) | relative viability ([2]; first compound 0.1 µM) | relative viability ([2]; first compound 1 µM) | relative viability ([2]; first compound 3.162 µM) | relative viability ([3]; first compound 0.02 µM) | relative viability ([3]; first compound 0.06325 µM) | relative viability ([3]; first compound 0.2 µM) | relative viability ([3]; first compound 0.6325 µM) | relative viability ([3]; first compound 2 µM) |
| --- | --- | --- | --- | --- | --- | --- | --- | --- | --- | --- | --- | --- | --- | --- | --- | --- |
| NCI-H1734 | 1.04 | 0.774 | 0.517 | 0.931 | 1.06 | 0.955 | 0.966 | 0.928 | 0.717 | 0.633 | 0.531 | 0.889 | 0.868 | 0.91 | 0.787 | 0.787 |
| HOP-62 | 1.03 | 1.04 | 0.911 | 1.03 | 0.997 | 0.943 | 0.928 | 1.05 | 0.401 | 0.427 | 0.545 | 1.06 | 1.01 | 0.996 | 0.91 | 1.08 |
| LOU-NH91 | 0.959 | 0.974 | 0.63 | 0.963 | 1 | 0.951 | 0.965 | 1.06 | 0.754 | 0.785 | 0.657 | 0.74 | 0.755 | 0.722 | 0.673 | 0.804 |
| ChaGo-K-1 | 1.06 | 1.05 | 0.946 | 0.98 | 0.994 | 0.941 | 0.971 | 1.03 | 0.883 | 0.875 | 0.876 | 0.931 | 1.06 | 0.636 | 0.939 | 1.19 |
| NCI-H2228 | 1.04 | 1.33 | 0.699 | 1 | 1.04 | 1.1 | 1.03 | 0.797 | 0.696 | 0.497 | 0.235 | 1.14 | 1.16 | 0.918 | 0.976 | 0.809 |
| PC-14 | 0.958 | 0.973 | 0.954 | 1.05 | 1.06 | 0.954 | 0.964 | 1.02 | 0.808 | 0.769 | 0.799 | 1.1 | 0.979 | 1.15 | 0.917 | 1.05 |
| NCI-H1437 | 0.986 | 1 | 0.975 | 0.975 | 1.05 | 0.957 | 1.01 | 0.946 | 0.601 | 0.704 | 0.502 | 1.08 | 1.12 | 1.11 | 1.12 | 1.11 |
| NCI-H460 | 1.01 | 0.99 | 0.979 | 0.974 | 0.995 | 1 | 0.987 | 0.976 | 0.205 | 0.192 | 0.228 | 1.17 | 1.11 | 1.13 | 1.07 | 1.06 |
| NCI-H1666 | 0.951 | 1.01 | 0.922 | 1.05 | 0.986 | 1.01 | 0.961 | 0.987 | 0.842 | 0.934 | 0.776 | 1.14 | 0.788 | 1.11 | 0.913 | 1.01 |
| NCI-H1651 | 1.02 | 0.975 | 0.821 | 1 | 0.947 | 0.978 | 0.956 | 0.998 | 0.786 | 0.858 | 0.834 | 1.06 | 1.11 | 1.13 | 0.998 | 1.01 |
| NCI-H1755 | 0.988 | 0.986 | 1.02 | 1.01 | 1.03 | 1.04 | 0.966 | 0.986 | 0.814 | 0.742 | 0.836 | 1.03 | 1.04 | 1.03 | 1.03 | 0.991 |
| HARA | 0.986 | 0.971 | 1.02 | 0.901 | 1.09 | 0.975 | 1.11 | 1.07 | 0.464 | 0.726 | 1.02 | 1.24 | 1.14 | 1.15 | 1.16 | 1.15 |
| NCI-H596 | 1.02 | 1.1 | 0.981 | 1.12 | 1.11 | 1.06 | 0.992 | 0.945 | 0.792 | 0.854 | 0.65 | 0.593 | 0.968 | 1.04 | 1.1 | 0.841 |
| NCI-H23 | 1.05 | 0.689 | 0.336 | 0.863 | 1.04 | 0.988 | 0.904 | 0.846 | 0.37 | 0.29 | 0.278 | 0.821 | 0.847 | 0.801 | 0.903 | 0.855 |
| LCLC-97TM1 | 1.03 | 0.956 | 0.489 | 0.995 | 1.1 | 1 | 1.01 | 0.958 | 0.197 | 0.183 | 0.174 | 0.321 | 0.422 |  | 0.359 | 0.393 |
| EPLC-272H | 0.988 | 0.905 | 0.447 | 0.904 | 1.2 | 0.874 | 1.01 | 0.911 | 0.275 | 0.274 | 0.295 | 1.25 | 1.07 | 1.15 | 1 | 1.09 |
| NCI-H1915 | 1.04 | 0.978 | 0.742 | 0.86 | 1.02 | 0.978 | 0.963 | 0.989 | 0.332 | 0.331 | 0.37 | 0.771 | 0.804 | 0.812 | 0.767 | 0.803 |
| NCI-H2405 | 0.985 | 0.995 | 0.7 | 1 | 1.02 | 1.09 | 0.961 | 1.06 | 0.604 | 0.596 | 0.643 | 0.848 | 1 | 0.941 | 0.913 | 0.969 |
| NCI-H322M | 1.03 | 1 | 0.92 | 1.01 | 0.958 | 0.92 | 0.98 | 0.996 | 0.51 | 0.525 | 0.598 | 1.18 | 1.18 | 1.34 | 1.18 | 1.1 |
| NCI-H2170 | 0.965 | 1.02 | 0.825 | 0.985 | 0.974 | 0.967 | 0.949 | 0.997 | 0.878 | 0.958 | 0.888 | 0.56 | 0.598 | 0.578 | 0.561 | 0.6 |
